Experiments:
[1] = system: TNF-α; assay: Anti-inflammatory effect, TNF-α ELISA in LPS stimulated RAW 264.7 cells; format: cell-based, mouse; settings: for Cytokine Concentration TNF-α: LPS, 24 h
Excerpt: (§1) Therapeutic effect. […] PTNP concentrations were compared to free dexamethasone in media, which simulates systemic delivery. The experimental design included the expected concentrations of dexamethasone released from PTNP groups.

[2] = system: IL-1β; assay: Anti-inflammatory effect, IL-1β ELISA in LPS stimulated RAW 264.7 cells; format: cell-based, mouse; settings: for Cytokine Concentration IL-1β: LPS, 24 h
Excerpt: as §1

C[C@@H]1C[C@H]2[C@@H]3CCC4=CC(=O)C=C[C@]4(C)[C@@]3(F)[C@@H](O)C[C@]2(C)[C@@]1(O)C(=O)CO [Free DEX, dexamethasone] was tested, and the “concentration required to maintain TNF-α control concentration levels in the presence of stimuli” value ([1]; ELISA) was 0.23 mg/mL, the “Cytokine Concentration TNF-α” value ([1]; Free DEX 0.10 mg/mL) was 78 ± 3 pg/mL and the “Cytokine Concentration TNF-α” value ([1]; Free DEX 0.50 mg/mL) was 66 ± 3 pg/mL. The “Cytokine Concentration TNF-α” value ([1]; Free DEX 1.00 mg/mL) was 50 ± 3 pg/mL, the “Cytokine Concentration TNF-α” value ([1]; Free DEX 2.00 mg/mL) was 35 ± 6 pg/mL and the TNF-α versus control ([1]; free dexamethasone 0.10-0.50 mg/mL) was “lowered TNF-α but not enough to be comparable to the control”. The “TNF-α concentrations versus control” value ([1]; free dexamethasone in media 1 and 2 mg/mL) was “lowered TNF-α concentrations to control levels”, the “concentration required to maintain IL-1β control concentration levels in the presence of stimuli” value ([2]; ELISA) was 0.23 mg/mL and the “Cytokine Concentration IL-1β” value ([2]; Free DEX 0.10 mg/mL) was 1009 ± 7 pg/mL. For the same compound, the “Cytokine Concentration IL-1β” value ([2]; Free DEX 0.50 mg/mL) was 759 ± 7 pg/mL, the “Cytokine Concentration IL-1β” value ([2]; Free DEX 1.00 mg/mL) was 491 ± 2 pg/mL and the “Cytokine Concentration IL-1β” value ([2]; Free DEX 2.00 mg/mL) was 489 ± 4 pg/mL.

From patent publication US10501575B2, “Biomimetic fluoroscopic films” (THE BOARD OF REGENTS OF THE UNIVERSITY OF TEXAS SYSTEM, priority 2015, dated 2019)
